From US9662318B2, “Bitopic muscarinic agonists and antagonists and methods of synthesis and use thereof” (BARRY UNIVERSITY, INC., priority 2012, dated 2017)
Structures can show the parent of a compound that is named as a salt.

Assays:
[1] = molecular target: T1, M1 muscarinic receptor (Homo sapiens, UniProt P11229); assay: Competition with [3H]NMS (equilibrium binding, CHO membranes); conditions: for Ki: read-out: Binding Equilibrium Constants (expressed as pKI) (converted)
T1 sequence (P11229 1-460): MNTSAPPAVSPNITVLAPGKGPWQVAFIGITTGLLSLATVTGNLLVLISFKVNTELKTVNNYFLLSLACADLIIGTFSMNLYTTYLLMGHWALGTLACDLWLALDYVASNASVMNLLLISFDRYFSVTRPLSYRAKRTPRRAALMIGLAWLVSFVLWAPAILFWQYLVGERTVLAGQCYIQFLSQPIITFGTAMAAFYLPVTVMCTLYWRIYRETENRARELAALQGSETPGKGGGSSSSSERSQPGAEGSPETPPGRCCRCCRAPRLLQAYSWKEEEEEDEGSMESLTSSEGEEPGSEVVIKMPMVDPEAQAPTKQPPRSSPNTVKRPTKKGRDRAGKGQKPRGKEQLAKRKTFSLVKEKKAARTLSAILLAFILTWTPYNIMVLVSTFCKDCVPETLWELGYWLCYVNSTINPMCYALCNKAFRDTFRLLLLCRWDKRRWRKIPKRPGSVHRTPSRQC
Procedure: (§1) All radioligand binding experiments were optimized and carried out as described earlier. Briefly, membranes were incubated in 96-well plates at 30° C. in the incubation medium described. […] Dissociation was initiated by addition of atropine to final concentration of 5 Tested ligands in final concentration of 100 μM were added concurrently with atropine. Incubations were terminated by filtration through Whatman GF/C glass fiber filters (Whatman) using a Brandel cell harvester (Brandel, Gaithersburg, Md., USA). Filters were dried in vacuum for 1 h while heated at 80° C. and then solid scintillator Meltilex A was melted on filters (105° C., 90 s) using a hot plate. The filters were cooled and counted in Wallac Microbeta scintillation counter.
(§2) Inhibition constant KI was calculated as: […]

[2] = molecular target: T2, M3 muscarinic receptor (Homo sapiens, UniProt P20309); assay: as above; conditions: read-out: Binding Equilibrium Constants (expressed as pKI) (converted)
T2 construct: host or cells: Chinese hamster ovary cells
T2 sequence (P20309 whole entry): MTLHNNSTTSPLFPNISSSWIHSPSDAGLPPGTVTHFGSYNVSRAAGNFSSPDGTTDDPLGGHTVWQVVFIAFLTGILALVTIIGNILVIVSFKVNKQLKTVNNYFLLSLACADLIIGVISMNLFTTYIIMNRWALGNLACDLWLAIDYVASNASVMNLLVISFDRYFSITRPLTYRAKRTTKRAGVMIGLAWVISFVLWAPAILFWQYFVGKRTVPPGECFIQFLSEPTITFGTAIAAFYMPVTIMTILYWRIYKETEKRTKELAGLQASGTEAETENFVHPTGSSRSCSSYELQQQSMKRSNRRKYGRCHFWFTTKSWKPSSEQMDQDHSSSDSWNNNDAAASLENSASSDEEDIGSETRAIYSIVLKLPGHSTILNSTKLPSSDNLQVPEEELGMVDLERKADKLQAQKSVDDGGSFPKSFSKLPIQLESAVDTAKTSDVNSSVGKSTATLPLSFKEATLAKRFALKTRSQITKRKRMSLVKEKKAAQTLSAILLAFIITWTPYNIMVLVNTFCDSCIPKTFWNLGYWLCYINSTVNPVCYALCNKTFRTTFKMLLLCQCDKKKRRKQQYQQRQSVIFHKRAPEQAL
Procedure: as §1, §2

[3] = molecular target: T3, M4 muscarinic receptor (Homo sapiens, UniProt P08173); assay: as above; conditions: read-out: Binding Equilibrium Constants (expressed as pKI) (converted)
T3 construct: host or cells: Chinese hamster ovary cells
T3 sequence (P08173 1-479): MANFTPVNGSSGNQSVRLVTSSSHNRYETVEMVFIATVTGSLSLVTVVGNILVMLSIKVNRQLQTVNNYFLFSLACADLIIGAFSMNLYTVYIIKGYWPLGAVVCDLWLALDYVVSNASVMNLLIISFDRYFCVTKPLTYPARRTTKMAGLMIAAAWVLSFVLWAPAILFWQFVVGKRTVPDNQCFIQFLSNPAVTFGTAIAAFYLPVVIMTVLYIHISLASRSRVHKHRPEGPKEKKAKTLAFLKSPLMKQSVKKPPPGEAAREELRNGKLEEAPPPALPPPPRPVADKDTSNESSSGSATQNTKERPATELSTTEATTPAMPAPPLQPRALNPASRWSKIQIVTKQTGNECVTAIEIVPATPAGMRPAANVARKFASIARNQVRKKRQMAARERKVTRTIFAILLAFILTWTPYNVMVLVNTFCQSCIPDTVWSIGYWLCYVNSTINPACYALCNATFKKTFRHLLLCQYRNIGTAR
Procedure: as §1, §2

[4] = molecular target: T4, M5 muscarinic receptor (Homo sapiens, UniProt P08912); assay: as above; conditions: read-out: Binding Equilibrium Constants (expressed as pKI) (converted)
T4 construct: host or cells: CHO (Chinese hamster ovary) cells, stably transfected
T4 sequence (P08912 1-532): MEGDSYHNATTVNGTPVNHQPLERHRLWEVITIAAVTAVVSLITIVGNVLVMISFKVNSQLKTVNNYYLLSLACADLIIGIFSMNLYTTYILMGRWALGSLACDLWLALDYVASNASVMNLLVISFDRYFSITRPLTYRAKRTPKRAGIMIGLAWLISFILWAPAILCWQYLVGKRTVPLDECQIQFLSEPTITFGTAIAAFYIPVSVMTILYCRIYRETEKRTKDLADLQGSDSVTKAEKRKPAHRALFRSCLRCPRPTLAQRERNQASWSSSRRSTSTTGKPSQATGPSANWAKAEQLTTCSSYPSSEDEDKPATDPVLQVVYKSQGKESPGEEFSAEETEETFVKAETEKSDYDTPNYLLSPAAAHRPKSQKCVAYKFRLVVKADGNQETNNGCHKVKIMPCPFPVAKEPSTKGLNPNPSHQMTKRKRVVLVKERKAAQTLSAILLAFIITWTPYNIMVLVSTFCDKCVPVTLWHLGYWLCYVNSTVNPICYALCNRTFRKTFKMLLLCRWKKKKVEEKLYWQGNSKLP
Procedure: as §1, §2

[5] = molecular target: T1, M1 muscarinic receptor; assay: Accumulation of inositol phosphates in CHO cells; type: cell-based; conditions: ligand 0.1 mM, no carbachol
Procedure: (§3) Chinese hamster ovary cells stably transfected with the genes of human variants of muscarinic receptors were purchased from Missouri S&T cDNA Resource Center (Rolla, Mo., USA). […] Cells were grown to confluency in 75 cm^2 flasks in Dulbecco's modified Eagle's medium supplemented with 10% fetal bovine serum and 2 million of cells were subcultured to 100 mm Petri dishes. Medium was supplemented with 5 mM butyrate for the last 24 hours of cultivation to increase receptor expression.
(§4) Inositolphosphates formation was determined in cells pre-labeled overnight by 0.5 μM [^3H]myo-inositol in 0.3 mL of DMEM (3 μCi/ml) at 37° C. […] Incubation was stopped by removal of incubation buffer and addition 0.2 mL 20% trichloracetic acid (TCA). After 1 h incubation at 4° C., 100 μL, of TCA extracts were taken for measurement. Rest of the TCA was removed, and TCA precipitates were washed with 200 μL TCA and dissolved in 200 μL of 1 M NaOH. After 1 h incubation at 4° C., 100 μL, of NaOH lysates were taken for measurement. Radioactivity in TCA extracts and NaOH lysates were determined by liquid scintillation counting. The rate of inositolphosphates accumulation was calculated as a percentage of the soluble (released) inositolphosphates from the total incorporated radioactivity (sum of radioactivity in NaOH lysates and TCA extracts).
(§5) EC50 values are expressed as negative logarithms and EMAX values as folds over basal, Table 7.

[6] = molecular target: T2, M3 muscarinic receptor; assay: Accumulation of inositol phosphates in CHO cells; type: cell-based; conditions: ligand 0.1 mM, no carbachol
Procedure: as §3, §4, §5

[7] = molecular target: T3, M4 muscarinic receptor; assay: Accumulation of inositol phosphates in CHO cells; type: cell-based; conditions: for Effect of ligands on basal activity (accumulation of inositol phosphates as percent of accumulation in the absence of the ligand): M4, ligand 0.1 mM, no carbachol
Procedure: as §3, §4, §5

[8] = molecular target: T4, M5 muscarinic receptor; assay: Accumulation of inositol phosphates in CHO cells; type: cell-based; conditions: for Effect of ligands on basal activity (accumulation of inositol phosphates as percent of accumulation in the absence of the ligand): M5, ligand 0.1 mM, no carbachol
Procedure: as §3, §4, §5

[9] = system: M1-M5 muscarinic receptors; assay: Accumulation of inositol phosphates, statements over all subtypes; type: cell-based, human; conditions: for basal functional response (in the absence of carbachol): 0.1 mM, at all receptor subtypes; for functional selectivity of antagonism: from shifts in carbachol EC50, Table 6
Procedure: Antagonism of tested compounds was determined at single high concentration of 0.1 mM.

[10] = molecular target: T4, M5 muscarinic receptor; assay: [3H]NMS saturation binding; conditions: M5 CHO membranes; binding sites per mg of membrane protein
[11] = system: M1-M5 muscarinic receptors; assay: Competition with [3H]NMS, statements over all subtypes; type: binding, human; conditions: versus other subtypes; from pKI, Table 4

CCCCOc1ccc(C(=O)OCC[N+]2(C)CC=CCC2)cc1 (stereo not drawn) [Compound 10a, 2-(1,2,5,6-tetrahydropyridine-N-ethyl)-4-butoxybenzoate N-methyl iodide]
Ki [1]: 2.51 µM | Ki [2]: 6.31 µM | Ki [3]: 7.94 µM | Ki [4]: 3.16 µM | Effect of ligands on basal activity (accumulation of inositol phosphates as percent of accumulation in the absence of the ligand) [5]: 83 ± 3 % | Effect of ligands on basal activity (accumulation of inositol phosphates as percent of accumulation in the absence of the ligand) [6]: 74 ± 3 % | Effect of ligands on basal activity (accumulation of inositol phosphates as percent of accumulation in the absence of the ligand) [7]: 74 ± 7 % | Effect of ligands on basal activity (accumulation of inositol phosphates as percent of accumulation in the absence of the ligand) [8]: 89 ± 3 % | basal functional response (in the absence of carbachol) [9]: lowered basal functional response

CCCCc1ccc(C(=O)OCCN2CCCCC2)cc1 [Compound 14b]
Ki [1]: 3.98 µM | Ki [2]: 6.31 µM | Ki [3]: 9.77 µM | Ki [4]: 5.01 µM | Effect of ligands on basal activity (accumulation of inositol phosphates as percent of accumulation in the absence of the ligand) [5]: 103 ± 3% | Effect of ligands on basal activity (accumulation of inositol phosphates as percent of accumulation in the absence of the ligand) [6]: 103 ± 3% | Effect of ligands on basal activity (accumulation of inositol phosphates as percent of accumulation in the absence of the ligand) [7]: 106 ± 1% | Effect of ligands on basal activity (accumulation of inositol phosphates as percent of accumulation in the absence of the ligand) [8]: 103 ± 3% | functional selectivity of antagonism [9]: M1/M3 functionally selective antagonist

C[N+]1(C)[C@@H]2C[C@@H](OC(=O)[C@H](CO)c3ccccc3)C[C@H]1[C@@H]1O[C@@H]12 [NMS, N-methyl scopolamine]
BMAX [10]: 1.0 ± 0.1 pmol/mg

CCCCc1ccc(C(=O)OCC[N+]2(C)CCCCC2)cc1 [Compound 13b, 2-(N-Piperidineethyl) p-butylbenzoyl ester N-methyl iodide]
Ki [1]: 3.16 µM | Ki [2]: 2.04 µM | Ki [3]: 3.98 µM | Ki [4]: 2.45 µM | Effect of ligands on basal activity (accumulation of inositol phosphates as percent of accumulation in the absence of the ligand) [5]: 104 ± 4% | Effect of ligands on basal activity (accumulation of inositol phosphates as percent of accumulation in the absence of the ligand) [6]: 104 ± 4% | Effect of ligands on basal activity (accumulation of inositol phosphates as percent of accumulation in the absence of the ligand) [7]: 107 ± 4% | Effect of ligands on basal activity (accumulation of inositol phosphates as percent of accumulation in the absence of the ligand) [8]: 104 ± 4% | functional selectivity of antagonism [9]: M1/M5 functionally selective

CCCCc1ccc(C(=O)OCC[N+]2(C)CC=CCC2)cc1 (stereo not drawn) [Compound 10b, 2-(1,2,5,6-tetrahydropyridine-N-ethyl)-4-butylbenzoate N-methyl iodide]
Ki [1]: 2.51 µM | Ki [2]: 3.98 µM | Ki [3]: 3.98 µM | Ki [4]: 1.58 µM | Effect of ligands on basal activity (accumulation of inositol phosphates as percent of accumulation in the absence of the ligand) [5]: 98 ± 9% | Effect of ligands on basal activity (accumulation of inositol phosphates as percent of accumulation in the absence of the ligand) [8]: 90 ± 10%

CCCCCCOc1ccc(C(=O)OCC[N+]2(C)CC=CCC2)cc1 (stereo not drawn) [Compound 10c, 2-(1,2,5,6-tetrahydropyridine-N-ethyl)-4-hexoxybenzoate N-methyl iodide]
Ki [2]: 0.398 µM | Ki [3]: 0.398 µM | Ki [4]: 0.158 µM | Effect of ligands on basal activity (accumulation of inositol phosphates as percent of accumulation in the absence of the ligand) [5]: 101 ± 1% | Effect of ligands on basal activity (accumulation of inositol phosphates as percent of accumulation in the absence of the ligand) [6]: 101 ± 1% | Effect of ligands on basal activity (accumulation of inositol phosphates as percent of accumulation in the absence of the ligand) [7]: 100 ± 2% | Effect of ligands on basal activity (accumulation of inositol phosphates as percent of accumulation in the absence of the ligand) [8]: 101 ± 1% | higher affinity for the M2 and M5 receptors [11]: one to three fold

CCCCOc1ccc(C(=O)OCCN2CC=CCC2)cc1 [Compound 9a, 2-(1,2,5,6-tetrahydropyridine-N-ethyl)-4-butoxybenzoate hydrochloride]
Ki [1]: 6.31 µM | Ki [2]: 7.94 µM | Ki [3]: 12.6 µM | Effect of ligands on basal activity (accumulation of inositol phosphates as percent of accumulation in the absence of the ligand) [6]: 100 ± 1% | Effect of ligands on basal activity (accumulation of inositol phosphates as percent of accumulation in the absence of the ligand) [7]: 100 ± 6%

C[N+](C)(C)CCOC(N)=O [carbachol, Carbachol, reference compound]
EMAX ([7]; M4 CHO cells, accumulation of inositol phosphates): 3.3 ± 0.3 fold over basal | EMAX ([8]; M5 CHO cells, accumulation of inositol phosphates): 2.5 ± 0.2 fold over basal

CCCCc1ccc(C(=O)OCCN2CC=CCC2)cc1 [Compound 9b, 2-(1,2,5,6-tetrahydropyridine-N-ethyl)-4-butylbenzoate hydrochloride]
Ki [1]: 7.94 µM | higher affinity for M1 receptor ([1]; versus other subtypes, from pKI, Table 4): two to three-fold | Ki [2]: 15.8 µM | Ki [3]: 25.1 µM | Ki [4]: 25.1 µM | Effect of ligands on basal activity (accumulation of inositol phosphates as percent of accumulation in the absence of the ligand) [5]: 85 ± 4 % | Effect of ligands on basal activity (accumulation of inositol phosphates as percent of accumulation in the absence of the ligand) [6]: 81 ± 5 % | Effect of ligands on basal activity (accumulation of inositol phosphates as percent of accumulation in the absence of the ligand) [7]: 73 ± 6 % | Effect of ligands on basal activity (accumulation of inositol phosphates as percent of accumulation in the absence of the ligand) [8]: 88 ± 3 % | basal functional response (in the absence of carbachol) [9]: lowered basal functional response | functional selectivity of antagonism [9]: M1/M4 functionally selective antagonists
